pEC50: −log10 of the molar value.
Experiments:
[1] = biological target: T1, α5β2γ2 GABAA receptor (Homo sapiens, UniProt P18507+P31644); assay: Assay B: modulation of α5β2γ2 GABAA receptor, two-electrode voltage clamp in oocytes; format: cell-based; settings: for pEC50: oocytes, TEVC, co-application with GABA 0.5 μM (EC5-20), read-out: Assay B: GABAA α5β3γ2 EC50
T1 sequence (P31644 32-462): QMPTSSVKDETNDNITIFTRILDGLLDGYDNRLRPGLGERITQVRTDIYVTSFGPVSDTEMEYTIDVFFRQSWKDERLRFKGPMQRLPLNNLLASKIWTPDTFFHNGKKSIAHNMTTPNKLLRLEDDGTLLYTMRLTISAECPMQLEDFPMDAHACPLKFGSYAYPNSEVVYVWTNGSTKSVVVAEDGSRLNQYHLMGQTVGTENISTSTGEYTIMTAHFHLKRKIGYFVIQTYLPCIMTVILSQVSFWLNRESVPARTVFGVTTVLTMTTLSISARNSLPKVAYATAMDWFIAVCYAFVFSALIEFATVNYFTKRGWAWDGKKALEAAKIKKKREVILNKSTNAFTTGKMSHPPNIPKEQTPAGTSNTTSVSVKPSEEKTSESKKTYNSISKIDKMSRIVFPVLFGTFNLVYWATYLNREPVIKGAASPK
T1 sequence (P18507 40-376 limits assumed): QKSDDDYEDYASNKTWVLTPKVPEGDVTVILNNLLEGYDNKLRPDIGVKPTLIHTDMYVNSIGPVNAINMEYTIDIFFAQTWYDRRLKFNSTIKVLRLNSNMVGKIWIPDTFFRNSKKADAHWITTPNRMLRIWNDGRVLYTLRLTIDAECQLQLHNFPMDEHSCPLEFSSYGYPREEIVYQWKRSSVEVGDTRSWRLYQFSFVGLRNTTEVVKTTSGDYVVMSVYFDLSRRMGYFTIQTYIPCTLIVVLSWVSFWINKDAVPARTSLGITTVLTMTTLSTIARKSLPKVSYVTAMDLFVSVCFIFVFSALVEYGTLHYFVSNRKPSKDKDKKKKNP
Protocol: Assay B: In vitro evaluation of modulation of α5β2γ2 GABAA receptor.
Modulatory efficacy of compounds of formula (I) is determined electrophysiological recordings in oocytes using the two-electrode voltage clamp (TEVC) technique. Oocytes are injected with cRNA for human GABAA receptor subunits α5, β2 and γ2 in a 3:1:3 ratio and modulatory efficacy is evaluated by co-applications with a submaximal EC5-20 GABA concentration (0.5 μM) termed GABA control. As a standard, the compounds are tested in five concentrations (3.16, 0.316, 0.0316, 0.00316 and 0.000316 μM) on each oocyte starting with the lowest concentration. Background subtracted peak current amplitudes are normalized to the respective GABA control current, converted to % change and depicted +/−S.E.M. as a function of increasing compound concentrations. Plotted datapoints are fitted to the empirical Hill equation using non-linear regression. 95% confidence intervals for maximal efficacy (Bottom) and potency (Log EC50) are derived from this fitting routine.

[2] = tested on: human MDR1 P-gp; assay: Efflux in MDCK cells transfected with the human MDR1 gene (MDCK-PGP permeability); format: in vitro ADME, canine; settings: dog, pH 7.4, 37° C.; for efflux ratio: PEBA/PEAB; for Papp A→B: apical-to-basal apparent permeability (PEAB)
Protocol: Assessment of Efflux in Madin-Darby Canine Kidney (MDCK) Cells Transfected with the 30 Human MDR1 Gene to Assess Brain Penetration (Drug Metabolism and Disposition February 2008, 36 (2) 268-275; DOI: https://doi.org/10.1124/dmd.107.017434) Apparent permeability coefficients (PE) of the compounds across the MDCK-MDR1 cell monolayers are measured (pH 7.4, 37° C.) in apical-to-basal (AB) and basal-to-apical (BA) transport direction. AB permeability (PEAB) represents drug absorption from the blood into the 35 brain and BA permeability (PEBA) drug efflux from the brain back into the blood via both passive permeability as well as active transport mechanisms mediated by efflux and uptake transporters that are expressed on the MDCK-MDR1 cells, predominantly by the overexpressed human MDR1 P-gp. The compounds are assigned to permeability/absorption classes by comparison of the AB permeabilities with the AB permeabilities of reference compounds with known in vitro permeability and oral absorption in the human. Identical or similar permeabilities in both transport directions indicate passive permeation, vectorial permeability points to additional active transport mechanisms. Higher PEBA than PEAB indicates the involvement of active efflux mediated by MDR1 P-gp. Active transport is concentration-dependently saturable.
MDCK-MDR1 cells (1-2×10e5 cells/1 cm2 area) are seeded on filter inserts (Costar transwell polycarbonate or PET filters, 0.4 μm pore size) and cultured (DMEM) for 7 days. Subsequently, the MDR1 expression is boosted by culturing the cells with 5 mM sodium butyrate in full medium for 2 days. Compounds are dissolved in appropriate solvent (like DMSO, 1-20 mM stock solutions). Stock solutions are diluted with HTP-4 buffer (128.13 mM NaCl, 5.36 mM KCl, 1 mM MgSO4, 1.8 mM CaCl2, 4.17 mM NaHCO3, 1.19 mM Na2HPO4×7H2O, 0.41 mM NaH2PO4xH2O, 15 mM HEPES, 20 mM glucose, 0.25% BSA, pH 7.4) to prepare the transport solutions (0.1-300 μM compound, final DMSO <=0.5%). The transport solution (TL) is applied to the apical or basolateral donor side for measuring A-B or B-A permeability (3 filter replicates), respectively. The receiver side contains the same buffer as the donor side. Samples are collected at the start and end of experiment from the donor and at various time intervals for up to 2 hours also from the receiver side for concentration measurement by HPLC-MS/MS or scintillation counting. Sampled receiver volumes are replaced with fresh receiver solution.

**Q.** With Cc1ncn(-c2ccc(OCc3c(C)nnn3-c3ccc(C(F)F)cc3)nn2)n1 [Example 33] as the molecule, how does the Assay B: GABAA α5β3γ2 Emax vs GABA [1] read?
**A.** -22%

**Q.** And the pEC50 [1]?
**A.** 7.95

**Q.** What about the efflux ratio [2] of the same molecule?
**A.** 0.9

**Q.** What about the Papp A→B [2] of the same molecule?
**A.** 52.2 ×10⁻⁶ cm/s

**Q.** Which Assay B: GABAA α5β3γ2 Emax vs GABA [1] does the source give for Cc1nnn(-c2ccc(C(F)F)cc2)c1COc1ccc(-n2cnc(C[N+](C)(C)C)c2)nn1.O=C([O-])C(F)(F)F [Example 36, ({1-[6-({1-[4-(difluoromethyl)phenyl]-4-methyl-1H-1,2,3-triazol-5-yl}methoxy)pyridazin-3-yl]-1H-imidazol-4-yl}methyl)trimethylazanium trifluoroacetate] here?
**A.** -31.5%

**Q.** And the pEC50 [1]?
**A.** 8.21

**Q.** What about the efflux ratio [2] of the same molecule?
**A.** 0.5

**Q.** What about the Papp A→B [2] of the same molecule?
**A.** 0.6 ×10⁻⁶ cm/s

**Q.** Which results are given for Cc1nnn(-c2ccc(C(F)F)cc2)c1COc1ccc(-n2cnc(C(=O)O)c2)nn1 [Example 37, 1-[6-({1-[4-(difluoromethyl)phenyl]-4-methyl-1H-1,2,3-triazol-5-yl}methoxy)pyridazin-3-yl]-1H-imidazole-4-carboxylic acid]?
**A.** Assay B: GABAA α5β3γ2 Emax vs GABA [1]: -28.2%; pEC50 [1]: 8.33; efflux ratio [2]: 0.8; Papp A→B [2]: 0.7 ×10⁻⁶ cm/s

Source: patent US10941137B2, “Difluoromethyl-phenyl triazoles” (Boehringer Ingelheim International GmbH, priority 2018, dated 2021)
